Our source for the EC50 values is ChEMBL document CHEMBL1123897, “Nucleosides. 146. 1-Methyl-5-(2-deoxy-2-fluoro-beta-D-arabinofuranosyl)uracil, the C-nucleoside isostere of the potent antiviral agent 1-(2-deoxy-2-fluoro-beta-D-arabinofuranosyl)thymine (FMAU). Studies directed toward the synthesis of 2'-deoxy-2'-substituted arabino nucleosides. 6” (1987).

Type in all cases: functional
Holding throughout (details): read-out: ED50 (the source's name)

For test [1], the species on record is Homo sapiens. The test is described as follows: In vitro inhibitory activity against Herpes simplex […] was determined in human foreskin fibroblasts.
Test [2] is filed under the species Homo sapiens. The test is described as follows: In vitro inhibitory activity against Varicella zoster virus(VZV) was determined in human foreskin fibroblasts.
The species entered for test [3] is Homo sapiens. Briefly: In vitro inhibitory activity against Herpes simplex virus-1(HSV-1) was determined in human foreskin fibroblasts.

Molecules are shown by their SMILES. pEC50: −log10 of the molar value.

In the case of `Cn1cc([C@@H]2O[C@H](CO)[C@@H](O)[C@@H]2F)c(=O)[nH]c1=O`, the pEC50 in the test listed under Homo sapiens [1] was 4.64; in the test listed under Homo sapiens [2], 5.19; in the test listed under Homo sapiens [3], 5.07.
Regarding `Cc1cn([C@@H]2O[C@H](CO)[C@@H](O)[C@@H]2F)c(=O)[nH]c1=O` [5-METHYL-2'-FLUOROARAURACIL], the pEC50 in the test filed under Homo sapiens [1] was 6.89; in the test filed under Homo sapiens [2], 7.70; in the test listed under Homo sapiens [3] it was 7.22.
